This note sets out measurements from patent publication US5981544A, “Mono-- or diketone tetracyclic derivatives and therapeutical uses thereof” (Laboratoire Innothera, priority 1995, dated 1999).

The subject of data set [1] is inflammatory hyperpermeability induced by zymosan in rats. Description: Effects on capillary hyperpermeability induced by zymosan in rats (Evans Blue albumin extravasation). It is filed as in vivo, rat (Wistar). The settings on record: rat, oral. How it is done:
(§1) As for the in vivo studies, they are administered intravenously or intraperitoneally in the form of an aqueous solution with or without DMSO, or orally in a 1% carboxymethylcellulose suspension, administered with the use of a force-feed probe at a volume of 10 mL/kg.
Effects on induced capillary hyperpermeability
Vascular permeability is studied in vivo by measuring albumin extravasation, the quantity of which is determined by a coloring agent bonded to the albumin (Evans Blue). Hyperpermeability is induced by the intradermal injection of a histamine, bradykinin, or zymosan solution.
The technique is derived from that described by Beach and Steinetz, Journal of Pharmacology and Experimental Therapy, 131: 400-406, 1961.
The rats (Wistars, 200 to 230 g) are shaved on the abdominal wall 1 h before the start of the experiment. The product to be tested is injected i.p. or orally 1-4 h prior to sacrificing. The rats are anesthetized using a halothane mixture. They then receive an intradermal injection in the abdomen of 0.10 to 0.15 mL of an inflammatory agent (by histamine 6.7 or 10 μg) and an i.v. injection of 1 mL of Evans blue 0.5% solution in the vein of the penis. These injections are carried out 30 min prior to sacrificing.
30 min after these two injections, the rats are sacrificed by cervical dislocation.
At the locus of injection of the inflammatory agent, the skin is cut off and placed in ground-neck glass tubes containing 3 mL of fuming hydrochloric acid. Digestion of the skin is carried out by contact [with HCl] of at least 1 h in a double boiler at 37° C.; 3 mL of benzalkonium chloride at 12.8% are then added. After leaving undisturbed for 30 min, 7 mL of dichloromethane are added. The tubes are periodically agitated for 1 h. The aqueous phase is eliminated by aspiration and the organic dichloromethane phase is filtered. The optical densities are quantified by absorption spectrophotometry at a 620 nm wavelength, against a blank [control] containing only dichloromethane.
The averages for optical density of the different lots of experimental and control animals are calculated, then the variation between the data for the experimental animals and those for the control animals is calculated.
By way of illustration, the oral administration of certain compounds of the invention and their derived salts reduce inflammatory hyperpermeability induced by zymosan in rats in doses generally between 0.01 and 5 mg/kg: […]

For data set [2], the system named is saphenous vein of rabbits. Description: Contractile effect on rabbit saphenous vein rings precontracted by depolarizing physiological solution (40 mM potassium). Further details: species or system rabbit (New Zealand). The conditions noted are these: Oryctolagus cuniculus, precontracted at 40 mM potassium; for Emax: % of maximum contraction induced by depolarizing hyperpotassic solution, read-out: Emax (% of maximum contr.); for EC50: read-out: ED50 (the source's name). As for the experimental part:
For the in vitro studies, the compounds are made soluble in a pure aqueous solution or a solution containing DMSO (dimethyl sulfoxide).
Contractile effects are measured, in vitro and under static conditions, on capacitance or resistance vascular rings of the saphenous, femoral, jugular, mesenteric, and caval veins; and on the femoral, carotid, basilar, mesenteric, and thoracic or abdominal aortic arteries, in rats (Wistar, 200 to 250 g), rabbits (New Zealand, 2 to 2.5 kg), and guinea pigs (Dunkin Hartley, 250 to 300 g).
The rings are placed in an isolated organ chamber (25 mL for capacitance vessels and 2.5 mL for resistance vessels, as per Mulvany), kept in isometric conditions by two stiff cables inserted into the interior of the vessel, avoiding any damage to the endothelium. The vessels are washed in a modified Krebbs solution (in mM: NaCl=118; KCl=4.6; ClCl2 =2.5; MgSO4 =1.2; KH2 PO4 =1.17; NcHCO3 =25; glucose=11), permanently aerated by a gaseous mixture at 95% O2 and 5% CO2, at pH=7.4 and set thermostatically at 37° C. The rings are taken to their optimal point of the tension-length ratio.
The tensions developed generate an electrical signal through a strength sensor (Wheatstone bridge). […] The pharmacological studies are carried out after some preliminary contractile stimulations standardized by a depolarizing solution (hyperpotassic solution obtained by replacing NaCl by KCl in equimolar quantities), rinses, and balancing periods in pure physiological solution. Presence of the endothelium is verified by the relaxation induced by increasing concentrations of acetylcholine after stabilization of a vascular precontraction.
The contraction forces developed by the vascular rings in response to the different compounds are studied on quiescent or electrically stimulated (5-8 Hz) vessels, using a hyperpotassic depolarizing physiological solution (KCl: 20, 40 mM), using noradrenaline (increasing concentrations), or using serotonin (increasing concentrations).
The contractions are expressed in mg of force or as a percentage of maximum contraction at depolarization by a hyperpotassic physiological solution.
The compounds of the invention and their derived salts selectively increase, in the majority of cases, the contraction of animal veins produced by noradrenaline, by electrical stimulation, or by a depolarizing hyperpotassic solution. By way of example, there is the contractile effect of different compounds on the saphenous vein of rabbits, precontracted by a depolarizing physiological solution with a potassium concentration equal to 40 mM; the maximum effect produced by each compound is expressed as the percentage of maximum contraction induced by the depolarizing hyperpotassic solutions and in ED50 values: […]

In the next data set the test system is mice. Kind of data set: Acute oral toxicity in mice. Format: in vivo. The conditions noted are these: single oral administration, 1 g/kg. The source says:
Furthermore, the compounds of the invention and their derived salts have a very low toxicity.

Data set [3] has as its system capillary resistance in rats. Description: Effects on capillary resistance (petechial index, negative pressure) after oral administration in rats. It is filed as in vivo, rat (male Wistar). The conditions noted are these: rat. As for the experimental part: as §1
Effects on capillary resistance:
The increase in capillary resistance is detected by the change in the petechial index (negative pressure inducing the extravasation of erythrocytes), measured by a method derived from Parrot's angiosterrometer.
The study is carried out on male Wistar rats weighing an average of 200 g (aged approximately 6 weeks). The lower back area is shaved, then depilated with the use of a paste based on a by-product of thioglycolic acid and calcium hydroxide. After approximately 30 min, the skin is rinsed abundantly and dried.
On the day of the study, the rats are kept nonconstrained. A low pressure of 80 mm of mercury is applied.
The minimum low pressure at which the petechiae appear expressed in mm of mercury, the value of the base capillary resistance (before any treatment). Two measurements are carried out for each trial on different places on the back. The rats are treated orally. After a predetermined amount of time (generally 2, 4, or 6 h) after the treatment, the test is renewed on different areas of skin, until petechiae appear, yielding a new low pressure index. All measurements are carried out in the blind mode.
The variation between the means of the base capillary resistance and post-treatment capillary resistance is calculated for the experimental animals, for each treatment time and compared to the control group (excipient only) or the reference group.
By way of example, the oral administration of certain compounds of the invention and their derived salts increases the capillary resistance in rats at doses generally between 0.01 and 5 mg/kg: […]

Each structure is given as a SMILES string. Where “and” joins values, the source holds several entries; their conditions need not be identical. Equal entries are not always repeated.

On to `Cc1cccn2c3c(nc12)-c1ccccc1C(=O)C3=O` [Example 3, 5,6-Dihydro-5,6-dioxo-11-methyl-naphtho[1',2':4,5]-imidazo[1,2-a] pyridine], for which, in data set [1] (5 mg/kg), the “Effect at 2 hours (hyperpermeability induced by zymosan)” value (from here on “Effect at 2 hours”) is recorded as -13 % of control and the “Effect at 4 hours (hyperpermeability induced by zymosan)” value is -12 % of control. For the same compound, in data set [2], the Emax came out at 18 ± 4% and the EC50 is 200 nM.

`O=C1C(=O)c2c(nc3ncccn23)-c2ccccc21` [Example f]: in data set [2], the Emax is 56 ± 7% and the EC50 was found to be 450 nM.

On to `O=C1C(=O)c2c(nc3ccc(Cl)cn23)-c2ccccc21` [Example c, 9-Chloro-5,6-dihydro-5,6-dioxo-naphtho[1',2':4,5]-imidazo[1,2-a]pyridine], for which, in data set [1] (0.1 mg/kg), the “Effect at 2 hours” value is reported as -14 % of control and the “Effect at 4 hours (hyperpermeability induced by zymosan)” value is on record as -11 % of control. In the data set on mice, the mortality entry is on record as “no mortality was observable” and the toxic effect entry is “no toxic effect was observable”. Further, the “Effect at 6 hours (capillary resistance)” value in data set [3] (0.1 mg/kg) is 29 % of control and 17 % of control. Moreover, in data set [3] (5 mg/kg), the “Effect at 4 hours (capillary resistance)” value is given as 17 % of control and the “Effect at 6 hours (capillary resistance)” value was 10 % of control. In addition, in data set [2], the Emax came out at 27 ± 4% and the EC50 came to 157 nM.

On to `Cc1ccn2c3c(nc2c1)-c1ccccc1C(=O)C3=O` [Example 2, 5,6-Dihydro-5,6-dioxo-10-methyl-naphtho[1',2':4,5]-imidazo[1,2-a] pyridine], for which, in data set [1] (0.1 mg/kg), the “Effect at 2 hours” value was -10 % of control and the “Effect at 4 hours (hyperpermeability induced by zymosan)” value is -15 % of control. Besides, in the data set on mice, the mortality result was “no mortality was observable” and the toxic effect entry was “no toxic effect was observable”. In data set [3] (5 mg/kg), the “Effect at 4 hours (capillary resistance)” value is listed as 11 % of control and the “Effect at 6 hours (capillary resistance)” value is listed as 13 % of control. Further, in data set [2], the Emax came out at 28 ± 4% and the EC50 came to 271 nM.

`O=C1C(=O)c2c(nc3ccccn23)-c2ccccc21` [Example a, 5,6-Dihydro-5,6-dioxo-naphtho[1',2':4,5]imidazo[1,2-a] pyridine]: in data set [1] (5 mg/kg), the “Effect at 2 hours” value is -1 % of control and the “Effect at 4 hours (hyperpermeability induced by zymosan)” value is -28 % of control. For the same compound, in the data set on mice, the mortality entry is reported as “no mortality was observable” and the toxic effect result is recorded as “no toxic effect was observable”. In data set [2], the Emax was 32 ± 7% and the EC50 was determined as 306 nM.

For `O=C1c2ncccc2C(=O)c2c1nc1ccccn21` [Example h, 6,11-Dihydro-6,11-dioxo-pyrido[1',2':1,2]-imidazo[5,4-g]quinoline], in data set [1] (0.1 mg/kg), the “Effect at 2 hours” value is reported as -23 % of control and the “Effect at 4 hours (hyperpermeability induced by zymosan)” value was -5 % of control. In addition, in data set [3] (0.1 mg/kg), the “Effect at 4 hours (capillary resistance)” value is reported as 19 % of control and the “Effect at 6 hours (capillary resistance)” value is listed as 13 % of control. In data set [2], the Emax was found to be 18 ± 3% and the EC50 was determined as 67 nM.

For the compound `Cc1ccc2nc3c(n2c1)C(=O)C(=O)c1ccccc1-3` [Example 1, 5,6-Dihydro-5,6-dioxo-9-methyl-naphtho[1',2':4,5]-imidazo[1,2-a]pyridine], in data set [2], the Emax worked out at 20 ± 4% and the EC50 is 170 nM.

On to `O=C1C(=O)c2c(nc3cc(Cl)ccn23)-c2ccccc21` [Example 12, 10-Chloro-5,6-dihydro-5,6-dioxo-naphtho[1',2':4,5]-imidazo[1,2-a] pyridine], for which, in data set [2], the Emax is 13 ± 3% and the EC50 amounted to 58 nM.

The term Emax denotes the maximal effect, on the per cent scale that the assay sets.
